Values after ≈ are worked out from the molar mass of the structure shown.
Columns and labels:
Adenosine receptor A1 = biological target: T1, Adenosine receptor A1 (Cavia porcellus, UniProt P47745); assay: Ex vivo inhibition of guinea pig ileum twitch via Adenosine A1 receptor.; format: tissue-based
T1 sequence (P47745 whole entry): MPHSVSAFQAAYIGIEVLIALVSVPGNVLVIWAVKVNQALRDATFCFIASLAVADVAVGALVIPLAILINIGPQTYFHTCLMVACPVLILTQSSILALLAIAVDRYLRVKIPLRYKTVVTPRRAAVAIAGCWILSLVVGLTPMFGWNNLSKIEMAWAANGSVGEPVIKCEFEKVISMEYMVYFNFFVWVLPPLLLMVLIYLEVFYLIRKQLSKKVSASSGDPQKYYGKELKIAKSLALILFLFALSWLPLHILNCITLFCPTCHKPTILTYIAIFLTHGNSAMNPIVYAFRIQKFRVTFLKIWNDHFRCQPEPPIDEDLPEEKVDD

Adenosine receptor A2a [1] = biological target: T2, Adenosine receptor A2a (Rattus norvegicus, UniProt P30543); assay: (§1) Agonistic activity against Adenosine A2A receptor on rat striatal membranes; format: functional, Striatum, Membrane
Adenosine receptor A2a [2] = biological target: T2, Adenosine receptor A2a; assay: as §1
[3] = The compound was evaluated for the aqueous solubility at pH value of 2.6.; format: physicochemical; conditions: pH 2.6

T2 sequence (P30543 whole entry): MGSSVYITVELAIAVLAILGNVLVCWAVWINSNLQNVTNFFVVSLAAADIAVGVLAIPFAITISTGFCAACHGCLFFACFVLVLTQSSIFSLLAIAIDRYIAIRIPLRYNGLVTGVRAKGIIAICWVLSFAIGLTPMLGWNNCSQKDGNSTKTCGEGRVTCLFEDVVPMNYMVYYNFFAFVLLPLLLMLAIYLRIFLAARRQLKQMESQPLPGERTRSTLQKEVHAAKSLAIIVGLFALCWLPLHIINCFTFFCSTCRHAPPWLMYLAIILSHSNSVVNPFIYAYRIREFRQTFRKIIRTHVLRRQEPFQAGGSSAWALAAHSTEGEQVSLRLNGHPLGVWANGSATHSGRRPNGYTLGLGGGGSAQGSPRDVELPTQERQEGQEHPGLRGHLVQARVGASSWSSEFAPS

| Compound | ECR (Adenosine receptor A1) | also measured |
| --- | --- | --- |
| OC[C@H]1O[C@@H](n2cnc3c(NCC(c4ccccc4)c4ccccc4)nc(NC4CCCC4)nc32)[C@H](O)[C@@H]1O | > 612 |  |
| OC[C@H]1O[C@@H](n2cnc3c(NCc4cccc5ccccc45)nc(NC4CCCCC4)nc32)[C@H](O)[C@@H]1O |  | Ki (Adenosine receptor A2a [1]): 10.3 µM |
| CCNC(=O)[C@H]1O[C@@H](n2cnc3c(N)nc(NC4CCCC4)nc32)[C@H](O)[C@@H]1O | 80 |  |
| Nc1nc(N[C@@H]2CCC[C@H]2O)nc2c1ncn2[C@@H]1O[C@H](CO)[C@@H](O)[C@H]1O | 1470 |  |
| CCNC(=O)[C@H]1O[C@@H](n2cnc3c(NCC(c4ccccc4)c4ccccc4)nc(N[C@@H]4CCC[C@H]4O)nc32)[C@H](O)[C@@H]1O | 390 |  |
| OC[C@H]1O[C@@H](n2cnc3c(NCc4cccc5ccccc45)ncnc32)[C@H](O)[C@@H]1O |  | Ki (Adenosine receptor A2a [2]): 0.0094 µM |
| CCNC(=O)[C@H]1O[C@@H](n2cnc3c(NCC(c4ccccc4)c4ccccc4)nc(NC4CCCC4)nc32)[C@H](O)[C@@H]1O | > 5000 | solubility [3]: 24 µg/mL (≈ 42 µM) |
| CCNC(=O)[C@H]1O[C@@H](n2cnc3c(NCC(c4ccccc4)c4ccccc4)nc(N[C@H]4CC[C@H](N)CC4)nc32)[C@H](O)[C@@H]1O.O=C(O)C(F)(F)F | 369 | solubility [3]: 1570 µg/mL |
| CCNC(=O)[C@H]1O[C@@H](n2cnc3c(N)nc(N[C@@H]4CCC[C@H]4O)nc32)[C@H](O)[C@@H]1O | 260 |  |
| CCNC(=O)[C@H]1O[C@@H](n2cnc3c(NCC(c4ccccc4)c4ccccc4)nc(NCCc4c[nH]cn4)nc32)[C@H](O)[C@@H]1O | 672 | solubility [3]: ≥ 1820 µg/mL |
| CCNC(=O)[C@H]1O[C@@H](n2cnc3c(NCC(c4ccccc4)c4ccccc4)nc(NCCN4CCCCC4)nc32)[C@H](O)[C@@H]1O.O=C(O)C(F)(F)F | 263 | solubility [3]: ≥ 1870 µg/mL |

Further lines, with some results ahead:

| ECR (Adenosine receptor A1) | Compound | also measured |
| --- | --- | --- |
| 2 | OC[C@H]1O[C@@H](n2cnc3c(N[C@@H]4CCC[C@@H]4O)nc(Cl)nc32)[C@H](O)[C@@H]1O |  |
| 1 | OC[C@H]1O[C@@H](n2cnc3c(NC4CCCC4)nc(Cl)nc32)[C@H](O)[C@@H]1O |  |
| 549 | Nc1nc(NC2CCCC2)nc2c1ncn2[C@@H]1O[C@H](CO)[C@@H](O)[C@H]1O |  |
| > 1000 | OC[C@H]1O[C@@H](n2cnc3c(NCCc4cccc(Cl)c4)nc(NC4CCCC4)nc32)[C@H](O)[C@@H]1O |  |
| 84 | Nc1nc(N[C@H]2CCC[C@@H]2O)nc2c1ncn2[C@@H]1O[C@H](CO)[C@@H](O)[C@H]1O |  |

From ChEMBL document CHEMBL1133401 (Bioorg Med Chem Lett, 2000)
